Measurements reported in publication PMC7516806, “Hybrid Antimicrobial Peptide Targeting Staphylococcus aureus and Displaying Anti-infective Activity in a Murine Model” (Frontiers in Microbiology, 2020).
In brackets after ≈: the same amount, converted by molar mass. Positions of bridges follow the written chain, without caps; N, C: chain ends. Residues, ends and D or L forms follow the SMILES beside them. No end group written: not given here.

Tests used:
L. plantarum 8014 = assay: MIC, modified microtiter dilution; assay type: cell-based, Lactobacillus plantarum; conditions: 2–7 × 10^5 CFU/ml, 37°C, 24 h, no turbidity, at least three independent repeats
Excerpt: (§1) The experiment was repeated at least three times independently.

P. aeruginosa 27853 = assay: MIC, modified microtiter dilution; assay type: cell-based, Pseudomonas aeruginosa; conditions: MHB, 2–7 × 10^5 CFU/ml, 37°C, 24 h, no turbidity, at least three independent repeats
Excerpt: as §1

MRSA 43300 = assay type: cell-based, Staphylococcus aureus; conditions: MHB, 2–7 × 10^5 CFU/ml, 37°C, 24 h, no turbidity, at least three independent repeats
Excerpt: as §1

S. aureus 29213 [1] = assay: MIC in the presence of physiological salts; assay type: cell-based, Staphylococcus aureus; conditions: three independent repeats, unit not given in Table 4; for MIC against S. aureus 29213, FeCl3: 4 μM FeCl3; for MIC against S. aureus 29213, NH4Cl: 6 μM NH4Cl; for MIC against S. aureus 29213, ZnCl2: 8 μM ZnCl2; for MIC against S. aureus 29213, MgCl2: 1 mM MgCl2; for MIC against S. aureus 29213, CaCl2: 2 mM CaCl2; for MIC against S. aureus 29213, KCl: 4.5 mM KCl; for MIC against S. aureus 29213, NaCl: 150 mM NaCl
Experimental: as §1
The MIC of peptides was determined in the presence of salts at physiological concentrations (150 mM NaCl, 4.5 mM KCl, 6 μM NH4Cl, 8 μM ZnCl2, 1 mM MgCl2, 2 mM CaCl2, and 4 μM FeCl3) as described previously ([Dong et al., 2014]). All experiments were performed three times independently.

E. coli K99 = conditions: MHB, 2–7 × 10^5 CFU/ml, 37°C, 24 h, no turbidity, at least three independent repeats
Excerpt: (§2) The bacterial strains Escherichia coli (E. coli) ATCC 25922, E. coli K88, E. coli K99, Pseudomonas aeruginosa (P. aeruginosa) ATCC 27853, Escherichia coli (E. coli) UB1005, Salmonella typhimurium 14028, Salmonella pullorum (S. pullorum) C7913, S. typhimurium C7731, S. aureus ATCC 29213, MRSA ATCC 43300, and S. aureus ATCC 25923 were obtained from the College of Veterinary Medicine, Northeast Agricultural University, China. Lactobacillus plantarum (L. plantarum) 8014, Lactobacillus rhamnosus (L. rhamnosus) 7469, L. rhamnosus 1.0911, L. rhamnosus 1.0936, and L. rhamnosus 1.0385 were obtained from the Key Laboratory of Food College, Northeast Agricultural University, China.
(§3) As in a previous study, the antimicrobial activities of the AMPs were investigated using a modified standard microtiter dilution method ([Dong et al., 2014]). The peptides were serially diluted with a solution containing 0.01% acetic acid and 0.2% bovine serum albumin (BSA, Sigma) in 96-well plates. The bacteria grew to the mid-log phase and then were dissolved in MHB at concentration of 2–7 × 10^5 CFU/ml. The peptides and bacterial solution were mixed in equal volume in a 37°C incubator for 24 h. […] Mueller-Hinton broth with microorganisms was used as the positive control, and the pure broth was used as the negative control. The experiment was repeated at least three times independently.

E. coli K88 = conditions: MHB, 2–7 × 10^5 CFU/ml, 37°C, 24 h, no turbidity, at least three independent repeats
Excerpt: as §2, §3

RAW 264.7 cells = assay: Cytotoxicity, MTT dye reduction assay; assay type: cell-based, murine; conditions: highest concentration of 128 μM, 4 h, three independent repeats
Experimental: The cytotoxicity of peptides was determined by healthy human erythrocytes and the murine macrophage cell line RAW 264.7 via a hemolysis assay and MTT dye reduction assay, respectively ([Wang et al., 2018]). In the hemolysis assay, fresh hRBCs from healthy people were centrifuged for 5 min at 1,000 × g and then washed three times with PBS (pH = 7.2). The 100 μL erythrocyte suspension and peptides were incubated for 1.5 h in an incubator at 37°C. The 96-well plates were centrifuged at 1,000 × g for 5 min, and the supernatants were carefully aspirated. The absorbance at 570 nm indicated the leakage of hemoglobin. The hRBCs in the PBS sample was used as the negative control, and 0.1% Triton X-100 addition served as the positive control. In the MTT dye reduction assay, 1.0–2.0 × 10^5 cells were plated in 96-well plates and then treated with various concentrations of peptides for 4 h at 37°C in a 5% CO2 incubator. Subsequently, 50 μL of MTT was added to the plated cells at a final concentration of 0.5 mg/mL and incubated for 4 h. Then, the cells were centrifuged at 1000 × g for 5 min, and the supernatants were discarded. Formazan crystals were dissolved in 150 μL of DMSO, and the OD570 nm was measured using a microplate reader (TECAN GENios F129004; TECAN, Austria). The experiment was repeated three times independently.

S. aureus 29213 [2] = assay: MIC, modified microtiter dilution; assay type: cell-based, Staphylococcus aureus; conditions: MHB, 2–7 × 10^5 CFU/ml, 37°C, 24 h, no turbidity, at least three independent repeats
Excerpt: as §1

S. aureus 25923 = assay: MIC, modified microtiter dilution; assay type: cell-based, Staphylococcus aureus; conditions: MHB, 2–7 × 10^5 CFU/ml, 37°C, 24 h, no turbidity, at least three independent repeats
Excerpt: as §1

E. coli 25922 = assay: MIC, modified microtiter dilution; assay type: cell-based, Escherichia coli; conditions: MHB, 2–7 × 10^5 CFU/ml, 37°C, 24 h, lowest concentration with no turbidity, at least three independent repeats
Excerpt: as §1

E. coli UB1005 = assay: MIC, modified microtiter dilution; assay type: cell-based, Escherichia coli; conditions: MHB, 2–7 × 10^5 CFU/ml, 37°C, 24 h, no turbidity, at least three independent repeats
Excerpt: as §1

[3] = system: panel of bacterial species; assay: MIC against a panel of bacterial species (summary statements); assay type: cell-based
Excerpt: as §1

L. rhamnosus 1.0936 = assay: MIC, modified microtiter dilution; assay type: cell-based, Lactobacillus rhamnosus; conditions: 2–7 × 10^5 CFU/ml, 37°C, 24 h, no turbidity, at least three independent repeats
Excerpt: as §1

L. rhamnosus 1.0385 = assay: MIC, modified microtiter dilution; assay type: cell-based, Lactobacillus rhamnosus; conditions: 2–7 × 10^5 CFU/ml, 37°C, 24 h, no turbidity, at least three independent repeats
Excerpt: as §1

L. rhamnosus 1.0911 = assay: MIC, modified microtiter dilution; assay type: cell-based, Lactobacillus rhamnosus; conditions: 2–7 × 10^5 CFU/ml, 37°C, 24 h, no turbidity, at least three independent repeats
Excerpt: as §1

L. rhamnosus 7469 = assay: MIC, modified microtiter dilution; assay type: cell-based, Lactobacillus rhamnosus; conditions: 2–7 × 10^5 CFU/ml, 37°C, 24 h, no turbidity, at least three independent repeats
Excerpt: as §1

S. typhimurium 14028 = assay: MIC, modified microtiter dilution; assay type: cell-based, Salmonella typhimurium; conditions: MHB, 2–7 × 10^5 CFU/ml, 37°C, 24 h, no turbidity, at least three independent repeats
Excerpt: as §1

S. typhimurium 7731 = assay: MIC, modified microtiter dilution; assay type: cell-based, Salmonella typhimurium; conditions: MHB, 2–7 × 10^5 CFU/ml, 37°C, 24 h, no turbidity, at least three independent repeats
Excerpt: as §1

S. pullorum 7913 = assay: MIC, modified microtiter dilution; assay type: cell-based, Salmonella pullorum; conditions: MHB, 2–7 × 10^5 CFU/ml, 37°C, 24 h, no turbidity, at least three independent repeats
Excerpt: as §1

Row | Molecule | MIC L. plantarum 8014 (L. plantarum 8014) | MIC P. aeruginosa 27853 (P. aeruginosa 27853) | MIC MRSA 43300 (MRSA 43300) | MIC against S. aureus 29213, FeCl3 (S. aureus 29213 [1]) | MIC against S. aureus 29213, NH4Cl (S. aureus 29213 [1]) | MIC against S. aureus 29213, ZnCl2 (S. aureus 29213 [1]) | MIC against S. aureus 29213, MgCl2 (S. aureus 29213 [1]) | MIC against S. aureus 29213, CaCl2 (S. aureus 29213 [1]) | MIC against S. aureus 29213, KCl (S. aureus 29213 [1]) | MIC against S. aureus 29213, NaCl (S. aureus 29213 [1]) | MIC E. coli K99 (E. coli K99) | MIC E. coli K88 (E. coli K88) | RAW 264.7 cell survival rate (RAW 264.7 cells) | MIC S. aureus 29213 (S. aureus 29213 [2]) | MIC S. aureus 25923 (S. aureus 25923) | MIC E. coli 25922 (E. coli 25922) | MIC E. coli UB1005 (E. coli UB1005) | MIC L. rhamnosus 1.0936 (L. rhamnosus 1.0936) | MIC L. rhamnosus 1.0385 (L. rhamnosus 1.0385) | MIC L. rhamnosus 1.0911 (L. rhamnosus 1.0911) | other results
1 | CC(C)C[C@H](NC(=O)[C@H](CC(C)C)NC(=O)[C@H](Cc1c[nH]c2ccccc12)NC(=O)[C@H](Cc1c[nH]c2ccccc12)NC(=O)[C@H](Cc1c[nH]c2ccccc12)NC(=O)[C@H](CCCNC(=N)N)NC(=O)[C@H](CS)NC(=O)[C@H](Cc1ccccc1)NC(=O)[C@H](Cc1ccc(O)cc1)NC(=O)[C@H](CO)NC(=O)[C@H](C)NC(=O)[C@@H](N)CS)C(N)=O [Peptide S4] (H-CASYFCRWWWLL-NH2; N-terminus assumed) | >64 µM | >64 µM | >64 µM | >64 µM | >64 µM | >64 µM | >64 µM | >64 µM | >64 µM | >64 µM | >64 µM | >64 µM | 90% | >64 µM | >64 µM | >64 µM | >64 µM | >64 µM | >64 µM | >64 µM | antimicrobial activity against the tested microorganisms ([3]; all tested bacteria, up to the highest concentration measured): failed to show antimicrobial activity; MIC L. rhamnosus 7469 (L. rhamnosus 7469): >64 µM; MIC S. typhimurium 14028 (S. typhimurium 14028): >64 µM; MIC S. typhimurium 7731 (S. typhimurium 7731): >64 µM; MIC S. pullorum 7913 (S. pullorum 7913): >64 µM
2 | C[C@@H]1NC(=O)[C@@H](N)CSSC[C@@H](C(=O)N[C@@H](CCCNC(=N)N)C(=O)N[C@@H](Cc2c[nH]c3ccccc23)C(=O)N[C@@H](Cc2c[nH]c3ccccc23)C(=O)N[C@@H](Cc2c[nH]c3ccccc23)C(=O)N[C@@H](CCCNC(=N)N)C(=O)N[C@@H](CCCNC(=N)N)C(N)=O)NC(=O)[C@H](Cc2ccccc2)NC(=O)[C@H](Cc2ccc(O)cc2)NC(=O)[C@H](CO)NC1=O [Peptide S1] (H-CASYFCRWWWRR-NH2; disulfide 1-6; N-terminus assumed) | >64 µM | >64 µM | 4 µM (≈ 6.87 µg/mL) | 8 µM | 4 µM | 1 µM | 4 µM | 8 µM | 4 µM | 4 µM | 4 µM (≈ 6.87 µg/mL) | 32 µM (≈ 54.9 µg/mL) | 86% | 4 µM (≈ 6.87 µg/mL) | 4 µM (≈ 6.87 µg/mL) | 8 µM (≈ 13.7 µg/mL) | 8 µM (≈ 13.7 µg/mL) | >64 µM | >64 µM | >64 µM | concentrations suppressing growth of tested Gram-negative bacteria ([3]; all tested Gram-negative bacteria except P. aeruginosa 27853): 4 to 64 µM; MIC L. rhamnosus 7469 (L. rhamnosus 7469): >64 µM; MIC S. typhimurium 14028 (S. typhimurium 14028): 64 µM (≈ 110 µg/mL); MIC S. typhimurium 7731 (S. typhimurium 7731): 32 µM (≈ 54.9 µg/mL); MIC S. pullorum 7913 (S. pullorum 7913): 8 µM (≈ 13.7 µg/mL)
3 | RWWWRR-NH2 [Peptide S6] | >64 µM | >64 µM | 8 µM | 32 µM | 16 µM | 4 µM | 32 µM | 32 µM | 16 µM | 8 µM | 32 µM | 32 µM | 94% | 16 µM | 16 µM | 32 µM | 32 µM | >64 µM | >64 µM | >64 µM | MIC L. rhamnosus 7469 (L. rhamnosus 7469): >64 µM; MIC S. typhimurium 14028 (S. typhimurium 14028): >64 µM; MIC S. typhimurium 7731 (S. typhimurium 7731): >64 µM; MIC S. pullorum 7913 (S. pullorum 7913): >64 µM
